Test results from article PMC12040169 (PLOS Biology, 2025).
Where “and” joins values, the source holds several entries; their conditions need not be identical. Equal entries are not always repeated.

Key:
in vitro = conditions: human, hela cells, % viability
HeLa = conditions: bulk resorufin, single well, 28.5 h, 10 µM, Bulk resorufin fluorescence

Row | Structure (SMILES) | viability at 28.5 h, 10 µM (in vitro) | % viability (HeLa)
1 | O=C(CNS(=O)(=O)c1ccc(Br)cc1)N1CCOCC1 [CBK034469] | 96% | 87%
2 | O=C(O)C1(c2ccccc2)CCN(S(=O)(=O)c2ccc(F)cc2)CC1 [CBK267571] | 92.9% | 87.8%
3 | Cc1c(NC(=O)OC(C)C)sc(=S)n1C [CBK028089] | 88.9% | 83.7%
4 | CC(=O)Nc1ccc(NS(=O)(=O)c2ccc(O)c(C(=O)O)c2)cc1 [CBK092150] | 115% | 96.9%
5 | Brc1ccc(CSc2nc[nH]n2)cc1 [CBK027819] | – | 98.5%
6 | S=C(Nc1ccc(C2=NCCO2)cc1)Nc1ccc(Cl)c(Cl)c1 [CBK022344] | 90.6% | 106%
7 | O=C(Nc1nc[nH]n1)NC1CCCCC1 [CBK017342] | – | 119% and 94.5%
8 | COc1cccc(CN2C(=O)[C@H]3CCCN3C(=O)c3ccccc32)c1 [CBK282852] | 108% | 106%
9 | C[C@@H]1CN2CCCC2CN1Cc1cc(F)ccc1F (some centres unmarked) [CBK285444] | 104% | 94.9%
10 | O=C(O)c1cccc2c1C(=O)N(Cc1ccccc1)C2 [CBK286872] | 91% | 89.1%
11 | O=C(Nc1ccccc1OC1CCNCC1)C1CCCO1 (centres unmarked) [CBK045905T] | 91.1% | 110%
12 | COc1ccc(C2N(CC(N)=O)CCOC23CCN(C(=O)c2ccc4ccccc4c2)CC3)cc1 (centres unmarked) [CBK115613] | 96.9% | 101%
13 | CN1CCN(S(=O)(=O)c2ccc(C(=O)O)cc2)CC1 [CBK062446] | 90.4% | 109% and 101%
14 | CC[C@@H](Cn1nc(-c2cccs2)ccc1=O)NC(=O)c1ccco1 [CBK282308] | 94.7% | 87.3%
15 | NCCc1c(C23CC4CC(CC(C4)C2)C3)[nH][nH]c1=O [CBK288081] | 86.5% | 106%
16 | O=C(CSC1=NCCS1)Nc1ccnc2ccccc12 [CBK112077] | 101% | 98.9%
17 | O=c1[nH]nc(COc2ccc(Br)cc2)o1 [CBK288526] | – | 110% and 86.7%
18 | C[C@@H]1CN2CCCC2CN1Cc1ccsc1 (some centres unmarked) [CBK285411] | 110% | 109%
19 | OC1CCn2c1nc1cc(C(F)(F)F)ccc12 (centres unmarked) [CBK115448] | 80.4% | 70.8%
20 | O=C(Nc1cncc(OC2CCNCC2)n1)C1CCC1 [CBK026728T] | 81.9% | 94%
21 | CC(=O)NCc1cccc(-c2cc(C(=O)Nc3ccc4c(c3)OCCO4)cnc2N2CCOCC2)c1 [CBK159355C] | 90.1% | 102%
22 | Clc1ccc(COc2nccnc2OC2CCN(CC3CC3)CC2)cc1Cl [CBK083123] | – | 104%
23 | O=C(c1cccnc1)N1C2CCC(C2)[C@H]1COc1ccc(F)cc1 (some centres unmarked) [CBK285268] | 90.2% | 87.8%
24 | O=C(O)c1cccc(S(=O)(=O)N2CCN(C(=O)c3ccccc3)CC2)c1 [CBK275920] | – | 113% and 91.5% and 99.3%
25 | COc1cc(F)ccc1-c1nc(NS(C)(=O)=O)cc2ccccc12 [CBK085751] | 97.2% | 105%
26 | O=c1[nH][nH]c2c1cnc1c(C(F)(F)F)cccc12 [CBK287996] | – | 113% and 84.4%
27 | Cc1cc(CN2CC3CCCN3C[C@@H]2C)c(C)n1-c1ccccn1 (some centres unmarked) [CBK285431] | 87% | 98.1%

Row | Structure (SMILES) | viability at 28.5 h, 10 µM (in vitro) | % viability (HeLa)
28 | CC(C)(C)c1cc(C(=O)NCCN2CCCC2)n(Cc2ccc(Cl)cc2Cl)n1 [CBK107290] | 115% | 110%
29 | COc1ccc(C(=O)Nc2ccc(OCC(=O)O)cc2)cc1 [CBK260894] | 91.4% | 85.6%
30 | Nc1nc(Nc2ccccc2)nc(C(F)(F)F)n1 [CBK004712] | 89.8% | 72%
31 | C[C@@H]1CN2C[C@H](O)CC2CN1Cc1cccc(C(F)(F)F)c1 (some centres unmarked) [CBK285413] | 91.7% | 88.1%
32 | O=C(O)Cc1cc(C(=O)/C=C/c2c(Cl)cccc2Cl)ccc1O [CBK013106] | 99% | 100%
33 | O=C(C1CC1)N1CCC[C@H]1Cn1nc(-c2cccs2)ccc1=O [CBK284250] | 76.7% | 80.9%
34 | O=C(CN1C(=O)[C@H]2CCCN2C(=O)c2ccccc21)NCC1CC1 [CBK282853] | 87.6% | 88.6%
35 | O=C1CSC(Nc2ccc(Br)cc2)=N1 [CBK026413] | 79.9% | 88.5%
36 | O=C(CC1SC(Nc2ccc(O)cc2)=NC1=O)c1ccccc1 (centres unmarked) [CBK267009] | 98.5% | 89%
37 | CC(CCN1CC2C[C@@H](O)CN2C[C@H]1C)c1ccccc1 (some centres unmarked) [CBK283010] | 82.4% | 89.2%
38 | C=CCNC(=O)[C@H]1C=CCN1S(=O)(=O)c1cccc2ccccc12 [CBK282440] | 91% | 102%
39 | Cc1ccc(Nc2cc(N3CCC(C(=O)O)CC3)ncn2)cc1 [CBK288121] | 104% | 91.3%
40 | O=C1CSC(c2ccc(Br)cc2)N1O (centres unmarked) [CBK288521] | 89% | 97.7%
41 | Oc1ccc(Nc2ncnc3c2oc2ccccc23)cc1 [CBK287967] | – | 92.3% and 113%
42 | CCOC(=O)N1CCC(NS(=O)(=O)c2ccc3ccccc3c2)CC1 [CBK045452] | 92% | 93.1% and 96.6%
43 | O=C(C1CC1)N1C2CCC(C2)[C@H]1COc1ccc(F)cc1 (some centres unmarked) [CBK284597] | 95% | 100%
44 | CC[C@@H](Cn1ncc2ccccc2c1=O)NC(=O)C1CCC1 [CBK282384] | 93.4% | 82%
45 | CN1CCc2[nH]c(=S)c(C#N)c(-c3ccccc3)c2C1 [CBK288354] | 96.5% | 87.1%
46 | Cc1nc2ccccc2n1C(=O)c1sc2ccccc2c1Cl [CBK020557] | 106% | 115%
47 | Cc1nn(C)c(N2CCNCC2)c1NC(=O)c1ccoc1 [CBK050302T] | 99.7% | 108%
48 | Oc1ccc(-c2cncc(-c3ccc(CN4CCOCC4)cc3)n2)cc1 [CBK123787] | 104% | 108%
49 | Cc1nn(C)c(Cl)c1S(=O)(=O)Nc1nc(=O)[nH]cc1F [CBK067568] | 99.1% | 97.9% and 87.2%
50 | CC1=C/C(=C(\C#N)C(N)=O)NC(c2ccccc2O)=N1 [CBK019764] | 111% | 95.3%
51 | C[C@@H]1CN2CCCC2CN1Cc1cccs1 (some centres unmarked) [CBK284550] | 85.6% | 98.3%
52 | O=C(NC[C@@H]1CCCN(C(=O)c2cscn2)C1)c1cccs1 [CBK284263] | 85.7% | 93.5%
53 | CCN(CC)c1ccc(NC(=O)N2CCN(Cc3ccccc3)CC2)cc1 [CBK155645] | 99.7% | 90.4%
54 | CN(C)S(=O)(=O)c1cc(C(=O)O)c(Cl)cc1Cl [CBK113173] | 101% | 94%

Row | Structure (SMILES) | viability at 28.5 h, 10 µM (in vitro) | % viability (HeLa)
55 | FC(F)(F)c1ccnc(OCCCc2ccncc2)c1 [CBK115786] | 109% | 101%
56 | O=C(Cn1c([C@@H]2CCCO2)cc2cccnc21)N1CCCCCC1 [CBK282285] | 88% | 101%
57 | O=C(O)c1ccc(CNCc2c(F)cccc2Cl)cc1 [CBK269496] | – | 82.3%
58 | COCCn1cc(CN2CC3CCCN3C[C@H]2C)c2ccccc21 (some centres unmarked) [CBK285427] | 95.7% | 106%
59 | CCn1cc(CN2C[C@@H]3CCCN3C[C@H]2CCSC)c(C)n1 [CBK285460] | 96.3% | 99.1%
60 | COc1nccc(NC(c2cnn(C)c2)[C@H]2C[C@H](O)C2)c1C#N (some centres unmarked) [CBK307283] | 94% | 91.1%
61 | CCOC(=O)c1c(NS(=O)(=O)c2ccc(NC(C)=O)cc2)sc2c1CCCC2 [CBK004658] | 90.3% | 99.8%
62 | C[C@@H]1CN2CCCC2CN1Cc1ccc(F)c(F)c1 (some centres unmarked) [CBK285445] | 99.5% | 105%
63 | CCN(CC)c1ccc2cc(/C(C)=N/O)c(=O)oc2c1 [CBK009063] | – | 108% and 84.7%
64 | Cc1cn(C2CC(O)C(CO)O2)c(=S)[nH]c1=O (centres unmarked) [CBK012339] | – | 112% and 90.8%
65 | Cc1cc(NC(=O)c2ccc(Br)o2)nc2c1c(=O)oc1ccccc12 [CBK287440] | – | 85.8% and 119%
66 | O=C(NC1CC1)[C@@H]1C=CCN1C(=O)c1ccc(F)cc1F [CBK284279] | – | 80.5% and 104%
67 | C[C@@H]1CN(Cc2ccco2)CCN1C(=O)Cc1ccccc1F [CBK284257] | – | 83.4% and 106%
68 | COc1ccc(C(=O)Nc2nc3nc(C)cc(C)c3s2)cc1 [CBK287755] | – | 105% and 83%
69 | COCCn1cnc2sc(C(=O)NCc3ccccc3OC)c(C)c2c1=O [CBK071862] | – | 95.1% and 64.7%
70 | COC(=O)c1ccc(-c2cc3ccccc3o2)nc1 [CBK149228] | – | 96.5%
71 | O=C(O)c1cc(S(=O)(=O)NCc2ccco2)c(Cl)cc1Cl [CBK113171] | – | 107% and 83.2%
72 | O=C(O)c1ccc(CNCc2c(F)cccc2Cl)cc1 [CBK269496C] | – | 111%
73 | O=C(NC[C@H]1CCCN(C(=O)c2ccccn2)C1)c1cccs1 [CBK284262] | – | 105% and 83.9%
74 | Cc1c(C(=O)O)sc2nc(SCC(=O)NCc3ccccc3)[nH]c(=O)c12 [CBK301214K] | – | 107%
75 | CC1=CC(C)C(C(=O)O)C(C(=O)N2CCN(C)CC2)C1 (centres unmarked) [CBK027311] | – | 102%
76 | Cc1cc(CC(=O)N2CCCC3(CCN(C(=O)c4ccoc4)C3)C2)on1 (centres unmarked) [CBK131628] | – | 106% and 82.1%
77 | COc1ccc(CCNC(=O)C2CCCCC2C(=O)O)cc1 (centres unmarked) [CBK262636] | – | 86.3% and 110%
78 | O=C(CN1C(=O)[C@H]2CCCN2C(=O)c2ccccc21)NC1CC1 [CBK282436] | – | 122% and 91.3%
79 | CCCO/N=C\c1ccc(-n2cnnc2)cc1 [CBK018921] | – | 77.5% and 99.8%
80 | CC(C)NC(=O)CN1C(=O)[C@H]2CCCN2C(=O)c2ccccc21 [CBK282437] | – | 112% and 88.6%
